Results from PubChem BioAssay AID1963964 (Molecular Pharmacology Branch, DTP, NCI, 2024).
One block for each compound: values may come before it.

System: 997726-040-R-J2-PDC tumor spheroids, viability
Assay: Anticancer human tumor 997726-040-R-J2-PDC patient-derived squamous cell lung carcinoma cell line growth inhibition [PI3K]
Settings: spheroids with HUVEC and MSC; for IC50: curve of first compound; for viability, T/C: stronger effect = lower value
Description: Combinatorial screen of targeted agents with the PI3K inhibitors inavolisib, alpelisib, duvelisib, and copanlisib in multi-cell type tumor spheroids
A high-throughput screen of multi-cell type tumor spheroids was designed to identify active combinations of targeted small molecules and PI3K pathway inhibitors. Complex spheroids include a stromal component modeled by human endothelial cells (HUVEC) and fibroblasts modeled by human mesenchymal stem cells (MSCs). The concentration ranges selected for each drug and investigational agent were based upon clinically achievable concentrations if the clinical Cmax of the agent was known.
Compounds. The drugs and investigational agents: inavolisib (NSC800729), alpelisib (NSC765974), duvelisib (NSC772469), copanlisib (NSC816437), ipatasertib (NSC767898), afuresertib (NSC778305), talazoparib (NSC767125), sapanisertib (NSC764658), selumetinib (NSC741078), tovorafenib (DAY101, NSC766906), vemurafenib (NSC761431), ravoxertinib (NSC781343), sotorasib (NSC818433), MRTX1133 (NSC 836407), abemaciclib (NSC 768073), palbociclib (NSC758247), venetoclax (NSC 766270), SY5609 (NSC837396), enzalutamide (NSC755605), and darolutamide (NSC825331), were obtained from the National Cancer Institute (NCI) Developmental Therapeutics Program Chemical Repository. The FDA-approved anticancer drug set is available from the NCI Developmental Therapeutics Program. […] The stock solutions were prepared in dimethyl sulfoxide (DMSO, Sigma-Aldrich, St. Louis, MO, cat. D2650) at 800-fold the tested concentration and stored at -70 degrees C prior to their use. All drugs and investigational agents were tested over a range starting from a high concentration at or near the clinical Cmax and decreasing in half-log increments. If the clinical Cmax for an agent had not been determined, the highest concentration tested was 10 microM.
Cell Culture. All cells were maintained in an incubator at 37 degrees C and 5% CO2 with 95% humidity. The PDC lines were cultured according to standard operating procedures established by the NCI PDMR (https://pdmr.cancer.gov/sops/default.htm). All PDCs were thawed and cultured in Matrigel-coated flasks prepared with a working solution of 1X Ham's F-12 nutrient mix, without supplementation (Invitrogen, Waltham, MA, cat. 11765054), 100 U/mL penicillin-streptomycin (Invitrogen, cat. 15140122), and 2.5% Matrigel (Corning Inc., Corning, NY, cat. 354248) for the first three passages. The 354836-022-R-J1-PDC, 475296-252-R-J1-PDC, and 997726-040-R-J2-PDC lines were cultured in 6A media, which includes advanced DMEM/F-12 (Thermo Fisher Scientific, cat. 12634028), 10 mM HEPES (Thermo Fisher Scientific, cat. 15630080), 1X GlutaMAX supplement (Thermo Fisher Scientific, cat. 35050061), 0.1 mg/mL primocin (InvivoGen, San Diego, CA, cat. ant-pm-2), 10% defined fetal bovine serum, heat inactivated (HyClone Laboratories Inc., Logan, UT, cat. SH30070.03HI), 50% L-WRN conditioned media (ATCC, cat. CRL-3276), 1.25 mM N-Acetyl-L-cysteine (Sigma-Aldrich, cat. A9165), 10 mM nicotinamide (Sigma-Aldrich, cat. N0636), 1X B-27 supplement (Thermo Fisher Scientific, cat. 17504044), 1X N-2 supplement (Thermo Fisher Scientific, cat. 17502048), and 10 microM Y-27632 dihydrochloride (Tocris Bioscience, Bristol, United Kingdom, cat. 1254). The 624824-186-R-J2-PDC line was cultured in 6C/Colon 1B media, which includes all 6A media components plus 50 ng/mL human EGF recombinant protein (Thermo Fisher Scientific, cat. PHG0311). […]

[1] = second compound 0.00316 µM, first compound 0.0316 µM
[2] = second compound 0.00316 µM, first compound 0.1 µM
[3] = second compound 0.01 µM, first compound 0.0316 µM
[4] = second compound 0.01 µM, first compound 0.1 µM
[5] = second compound 0.0316 µM, first compound 0.0316 µM
[6] = second compound 0.0316 µM, first compound 0.1 µM
[7] = second compound 0.1 µM, first compound 0.0316 µM
[8] = second compound 0.1 µM, first compound 0.1 µM
[9] = second compound 0.316 µM, first compound 0.0316 µM
[10] = second compound 0.316 µM, first compound 0.1 µM
[11] = second compound 1 µM, first compound 0.0316 µM
[12] = second compound 1 µM, first compound 0.1 µM
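Note: spheroids exposed to compounds for seven days before readout.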

IC50 (second compound 0.00316 µM): > 100 nM
IC50 (second compound 0.01 µM): > 100 nM
IC50 (second compound 0.0316 µM): 44.5 nM
IC50 (second compound 0.1 µM): < 0.316 nM
IC50 (second compound 0.316 µM): < 0.316 nM
IC50 (second compound 1 µM): < 0.316 nM
SMILES: CC(=O)c1c(C)c2cnc(Nc3ccc(N4CCNCC4)cn3)nc2n(C2CCCC2)c1=O + CC(Nc1ccc2c(c1)OCCn1cc(N3C(=O)OCC3C(F)F)nc1-2)C(N)=O
viability, T/C (second compound 0.00316 µM, first compound 0.000316 µM): 94.9%
viability, T/C (second compound 0.00316 µM, first compound 0.001 µM): 84.1%
viability, T/C (second compound 0.00316 µM, first compound 0.00316 µM): 83.1%
viability, T/C (second compound 0.00316 µM, first compound 0.01 µM): 81.9%
viability, T/C [1]: 84.9%
viability, T/C [2]: 55.8%
viability, T/C (second compound 0.01 µM, first compound 0.000316 µM): 84.7%
viability, T/C (second compound 0.01 µM, first compound 0.001 µM): 80.7%
viability, T/C (second compound 0.01 µM, first compound 0.00316 µM): 74.1%
viability, T/C (second compound 0.01 µM, first compound 0.01 µM): 76.4%
viability, T/C [3]: 65.8%
viability, T/C [4]: 53.9%
viability, T/C (second compound 0.0316 µM, first compound 0.000316 µM): 62%
viability, T/C (second compound 0.0316 µM, first compound 0.001 µM): 62.1%
viability, T/C (second compound 0.0316 µM, first compound 0.00316 µM): 63.9%
viability, T/C (second compound 0.0316 µM, first compound 0.01 µM): 53.9%
viability, T/C [5]: 52.5%
viability, T/C [6]: 45%
viability, T/C (second compound 0.1 µM, first compound 0.000316 µM): 43.5%
viability, T/C (second compound 0.1 µM, first compound 0.001 µM): 45.4%
viability, T/C (second compound 0.1 µM, first compound 0.00316 µM): 46.5%
viability, T/C (second compound 0.1 µM, first compound 0.01 µM): 48.9%
viability, T/C [7]: 40.5%
viability, T/C [8]: 29.5%
viability, T/C (second compound 0.316 µM, first compound 0.000316 µM): 38.4%
viability, T/C (second compound 0.316 µM, first compound 0.001 µM): 32.7%
viability, T/C (second compound 0.316 µM, first compound 0.00316 µM): 39.3%
viability, T/C (second compound 0.316 µM, first compound 0.01 µM): 30.1%
viability, T/C [9]: 24.4%
viability, T/C [10]: 22.9%
viability, T/C (second compound 1 µM, first compound 0.000316 µM): 26.3%
viability, T/C (second compound 1 µM, first compound 0.001 µM): 33.2%
viability, T/C (second compound 1 µM, first compound 0.00316 µM): 27.5%
viability, T/C (second compound 1 µM, first compound 0.01 µM): 28.1%
viability, T/C [11]: 22.2%
viability, T/C [12]: 15.3%

IC50 (second compound 0.00316 µM): > 10000 nM
IC50 (second compound 0.01 µM): > 10000 nM
IC50 (second compound 0.0316 µM): > 10000 nM
IC50 (second compound 0.1 µM): < 31.6 nM
IC50 (second compound 0.316 µM): < 31.6 nM
IC50 (second compound 1 µM): < 31.6 nM
SMILES: CNC(=O)c1ccc(N2C(=S)N(c3ccc(C#N)c(C(F)(F)F)c3)C(=O)C2(C)C)cc1F + CC(Nc1ccc2c(c1)OCCn1cc(N3C(=O)OCC3C(F)F)nc1-2)C(N)=O
viability, T/C [1]: 82.6%
viability, T/C [2]: 86.7%
viability, T/C (second compound 0.00316 µM, first compound 0.316 µM): 89%
viability, T/C (second compound 0.00316 µM, first compound 1 µM): 88.2%
viability, T/C (second compound 0.00316 µM, first compound 3.16 µM): 94.8%
viability, T/C (second compound 0.00316 µM, first compound 10 µM): 83.5%
viability, T/C [3]: 74.9%
viability, T/C [4]: 71.5%
viability, T/C (second compound 0.01 µM, first compound 0.316 µM): 79.6%
viability, T/C (second compound 0.01 µM, first compound 1 µM): 72.8%
viability, T/C (second compound 0.01 µM, first compound 3.16 µM): 78.8%
viability, T/C (second compound 0.01 µM, first compound 10 µM): 72.3%
viability, T/C [5]: 59.5%
viability, T/C [6]: 68.3%
viability, T/C (second compound 0.0316 µM, first compound 0.316 µM): 61%
viability, T/C (second compound 0.0316 µM, first compound 1 µM): 61.4%
viability, T/C (second compound 0.0316 µM, first compound 3.16 µM): 67.2%
viability, T/C (second compound 0.0316 µM, first compound 10 µM): 57.4%
viability, T/C [7]: 50.2%
viability, T/C [8]: 45.5%
viability, T/C (second compound 0.1 µM, first compound 0.316 µM): 45.1%
viability, T/C (second compound 0.1 µM, first compound 1 µM): 44.3%
viability, T/C (second compound 0.1 µM, first compound 3.16 µM): 42.4%
viability, T/C (second compound 0.1 µM, first compound 10 µM): 40.3%
viability, T/C [9]: 34.6%
viability, T/C [10]: 32.5%
viability, T/C (second compound 0.316 µM, first compound 0.316 µM): 31.8%
viability, T/C (second compound 0.316 µM, first compound 1 µM): 33%
viability, T/C (second compound 0.316 µM, first compound 3.16 µM): 28.9%
viability, T/C (second compound 0.316 µM, first compound 10 µM): 28.6%
viability, T/C [11]: 34.3%
viability, T/C [12]: 27.8%
viability, T/C (second compound 1 µM, first compound 0.316 µM): 26.7%
viability, T/C (second compound 1 µM, first compound 1 µM): 29.6%
viability, T/C (second compound 1 µM, first compound 3.16 µM): 21.4%
viability, T/C (second compound 1 µM, first compound 10 µM): 24.2%
